Measurements taken from patent US10508085B2, “Compounds and methods for IDO and TDO modulation, and indications therefor” (Plexxikon Inc., priority 2016, dated 2019).

How the values were obtained:
[1] = target: T1, human IDO (IDO1-expressing HEK293 cells) (Homo sapiens, UniProt P14902); experiment: Cell based kynurenine assay, IDO1-expressing HEK293 cell clones; settings: IDO1-expressing HEK293 cells, 24 hours, geometric mean; read-out: HEK293 IDO1 Kynurenine GMean IC50 (μM) (Cellular Assay)
T1 construct: expressed in transfected cells
T1 sequence (P14902 whole entry): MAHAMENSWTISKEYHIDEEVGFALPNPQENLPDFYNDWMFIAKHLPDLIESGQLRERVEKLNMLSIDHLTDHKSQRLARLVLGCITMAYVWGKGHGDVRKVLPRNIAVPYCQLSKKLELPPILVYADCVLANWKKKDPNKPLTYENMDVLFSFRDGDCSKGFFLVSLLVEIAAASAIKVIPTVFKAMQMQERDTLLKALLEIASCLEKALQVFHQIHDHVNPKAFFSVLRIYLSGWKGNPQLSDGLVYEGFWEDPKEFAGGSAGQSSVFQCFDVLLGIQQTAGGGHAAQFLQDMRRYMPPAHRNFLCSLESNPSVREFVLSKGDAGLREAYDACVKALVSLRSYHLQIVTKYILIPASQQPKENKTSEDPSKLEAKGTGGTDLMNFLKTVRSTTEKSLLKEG
Procedure, shortened: (§1)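 IC50 values come from nonlinear regression of kynurenine reduction in supernatants of human IDO1- or TDO-expressing HEK293 cells incubated 24 h with serially diluted compounds, normalised to cell and media-only controls containing 0.2% DMSO.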

[2] = target: T2, human TDO (TDO-expressing HEK293 cells) (Homo sapiens, UniProt P48775); experiment: Cell based kynurenine assay, TDO-expressing HEK293 cell clones; settings: TDO-expressing HEK293 cells, 24 hours, geometric mean; read-out: HEK293 TDO Kynurenine GMean IC50 (μM) (Cellular Assay)
T2 construct: expressed in transfected cells
T2 sequence (P48775 whole entry): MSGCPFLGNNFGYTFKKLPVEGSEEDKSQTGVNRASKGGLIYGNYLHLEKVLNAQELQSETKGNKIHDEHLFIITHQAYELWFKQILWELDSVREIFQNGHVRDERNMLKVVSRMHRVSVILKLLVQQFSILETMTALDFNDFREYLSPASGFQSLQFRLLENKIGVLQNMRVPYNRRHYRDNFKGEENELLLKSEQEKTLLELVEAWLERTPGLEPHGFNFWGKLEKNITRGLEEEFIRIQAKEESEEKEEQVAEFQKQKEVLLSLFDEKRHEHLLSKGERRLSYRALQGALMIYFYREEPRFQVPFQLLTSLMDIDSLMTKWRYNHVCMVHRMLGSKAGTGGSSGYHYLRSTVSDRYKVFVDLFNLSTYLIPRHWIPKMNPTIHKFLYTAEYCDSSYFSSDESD
Procedure, shortened: as §1

[3] = target: T3, Human Indoleamine 2,3-dioxygenase (IDO) (Homo sapiens, UniProt P14902); experiment: Human IDO enzymatic assay (kynurenine level); assay type: biochemical; settings: 6 nM IDO, 10 μM L-Trp; geometric mean; read-out: IDO1 GMean: IC50 (μM) (Biochemical Assay)
T3 construct: His tag (N); made in house; host or cells: E. coli
T3 sequence (P14902 whole entry): as the sequence (P14902 whole entry) above
Procedure, shortened: (§2)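 Reactions were stopped with TCA, converting N-formylkynurenine to kynurenine for quantitation, with IC50 by nonlinear regression. IDO: 6 nM enzyme, 10 μM L-Trp, 20 min RT. TDO: 1 nM enzyme, 350 μM L-Trp, 70 min RT, both in pH 6.5 buffer.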

[4] = target: T4, Human Tryptophan 2,3-dioxygenase (TDO) (Homo sapiens, UniProt P48775); experiment: Human TDO enzymatic assay (kynurenine level); assay type: biochemical; settings: 1 nM TDO, 350 μM L-Trp; geometric mean; read-out: TDO GMean: IC50 (μM) (Biochemical Assay)
T4 construct: His tag (N); made in house; host or cells: E. coli
T4 sequence (P48775 whole entry): as the sequence (P48775 whole entry) above
Procedure, shortened: as §2

| SMILES | IC50 [1] [µM] | IC50 [2] [µM] | IC50 [3] [µM] | IC50 [4] [µM] |
| --- | --- | --- | --- | --- |
| CC(C)(O)CNC(=O)N1CCC(C(C)(C)C(O)c2cc(Cl)cc3cn[nH]c23)CC1 (stereo not shown) [Compound P-0475, 4-(1-(5-chloro-1H-indazol-7-yl)-1-hydroxy-2-methylpropan-2-yl)-N-(2-hydroxy-2-methylpropyl) piperidine-1-carboxamide] | 0.0001 to 10 | 0.0001 to 10 | 0.0001 to 10 | 0.0001 to 10 |
| CC(C)(C1CCN(C(=O)NCCO)CC1)C(O)c1cc(Cl)cc2cn[nH]c12 (stereo not shown) [Compound P-0476, 4-(1-(5-chloro-1H-indazol-7-yl)-1-hydroxy-2-methylpropan-2-yl)-N-(2-hydroxyethyl) piperidine-1-carboxamide] | 0.0001 to 10 | 0.0001 to 10 | 0.0001 to 10 | 0.0001 to 10 |
| CC(C)(C1CCN(C(=O)NCc2ccccn2)CC1)C(O)c1cc(Cl)cc2cn[nH]c12 (stereo not shown) [Compound P-0477, 4-(1-(5-chloro-1H-indazol-7-yl)-1-hydroxy-2-methylpropan-2-yl)-N-(pyridin-2-ylmethyl)piperidine-1-carboxamide] | 0.0001 to 10 | 0.0001 to 10 | 0.0001 to 10 | 0.0001 to 10 |
| C[C@H](NC(=O)N1CCC(C(C)(C)C(O)c2cc(Cl)cc3cn[nH]c23)CC1)c1ccccn1 (stereo partly drawn) [Compound P-0478, 4-(1-(5-chloro-1H-indazol-7-yl)-1-hydroxy-2-methylpropan-2-yl)-N-((S)-1-(pyridin-2-yl)ethyl)piperidine-1-carboxamide] | 0.0001 to 10 | 0.0001 to 10 | 0.0001 to 10 | 0.0001 to 10 |
| C[C@@H](NC(=O)N1CCC(C(C)(C)C(O)c2cc(Cl)cc3cn[nH]c23)CC1)c1ccccn1 (stereo partly drawn) [Compound P-0479, 4-(1-(5-chloro-1H-indazol-7-yl)-1-hydroxy-2-methylpropan-2-yl)-N-((R)-1-(pyridin-2-yl)ethyl)piperidine-1-carboxamide] | 0.0001 to 10 | 0.0001 to 10 | 0.0001 to 10 | 0.0001 to 10 |
| O=C(CC1CCOCC1)N1CCC(C(F)(F)C(O)c2cc(Cl)cc3cn[nH]c23)CC1 (stereo not shown) [Compound P-0480, 1-(4-(2-(5-chloro-1H-indazol-7-yl)-1,1-difluoro-2-hydroxyethyl)piperidin-1-yl)-2-(tetrahydro-2H-pyran-4-yl)ethan-1-one] | 0.0001 to 10 | 0.0001 to 10 | 0.0001 to 10 | 0.0001 to 10 |
| O=C(CC1CCS(=O)(=O)CC1)N1CCC(C(F)(F)C(O)c2cc(Cl)cc3cn[nH]c23)CC1 (stereo not shown) [Compound P-0481, 1-(4-(2-(5-chloro-1H-indazol-7-yl)-1,1-difluoro-2-hydroxyethyl)piperidin-1-yl)-2-(1,1-dioxidotetrahydro-2H-thiopyran-4-yl)ethan-1-one] | 0.0001 to 10 | > 10 | 0.0001 to 10 | 0.0001 to 10 |
| O=C(NCC1COC1)N1CCC(C(F)(F)C(O)c2cc(Cl)cc3cn[nH]c23)CC1 (stereo not shown) [Compound P-0482, 4-(2-(5-chloro-1H-indazol-7-yl)-1,1-difluoro-2-hydroxyethyl)-N-(oxetan-3-ylmethyl)piperidine-1-carboxamide] | 0.0001 to 10 | 0.0001 to 10 | 0.0001 to 10 | 0.0001 to 10 |
| N#Cc1ccc(NC(=O)N2CCC(C(F)(F)C(O)c3cc(Cl)cc4cn[nH]c34)CC2)cc1 (stereo not shown) [Compound P-0483, 4-(2-(5-chloro-1H-indazol-7-yl)-1,1-difluoro-2-hydroxyethyl)-N-(4-cyanophenyl) piperidine-1-carboxamide] | 0.0001 to 10 | 0.0001 to 10 | 0.0001 to 10 | 0.0001 to 10 |
| O=C(Nc1ccc(Cl)cc1)N1CCC(C(F)(F)C(O)c2cc(Cl)cc3cn[nH]c23)CC1 (stereo not shown) [Compound P-0484, 4-(2-(5-chloro-1H-indazol-7-yl)-1,1-difluoro-2-hydroxyethyl)-N-(4-chlorophenyl) piperidine-1-carboxamide] | 0.0001 to 10 | 0.0001 to 10 | 0.0001 to 10 | 0.0001 to 10 |
